{
  "source": "BindingDB's records for doi:10.1016/j.ejmech.2020.112655",
  "about": "(University of Michigan, 2020)",
  "target": "Eukaryotic translation initiation factor 4E (Homo sapiens, UniProt P06730)",
  "sequence (P06730 whole entry)": "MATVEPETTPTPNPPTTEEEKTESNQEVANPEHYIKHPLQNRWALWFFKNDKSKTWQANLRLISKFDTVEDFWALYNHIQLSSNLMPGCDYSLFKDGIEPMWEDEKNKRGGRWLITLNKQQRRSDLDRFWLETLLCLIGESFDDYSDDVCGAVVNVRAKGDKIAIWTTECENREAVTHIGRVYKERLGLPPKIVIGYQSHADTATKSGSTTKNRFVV",
  "experiment": "Binding affinity to recombinant human 10His-tagged eIF4E expressed in Escherichia coli BL21 (DE3) cells assessed as dissociation constant by surface plasmon resonance analysis",
  "note": "Bridge positions count the residues as written; N and C are the ends. Peptide text beside a SMILES is read from it.",
  "data": [
    {"smiles": "CC[C@H](C)[C@H](NC(=O)[C@H](CCCNC(=N)N)NC(C)=O)C(=O)N[C@H](C(=O)N[C@@H](Cc1ccc(O)cc1)C(=O)N[C@@H](CC(=O)O)C(=O)N[C@@H](CCCNC(=N)N)C(=O)N[C@H]1CCC(=O)NCCCC[C@@H](C(=O)N[C@@H](CS)C(=O)N[C@@H](CCCNC(=N)N)C(N)=O)NC(=O)[C@H](CCSC)NC(=O)[C@H](CC(C)C)NC(=O)[C@H](Cc2ccccc2)NC1=O)[C@@H](C)CC", "note": "(Ac-RIIYDREFLMKCR-NH2; lactam 7-11)", "values": [
      {"measurement": "koff", "value": 0.0069, "unit": "s⁻¹"}
    ]},
    {"smiles": "CC[C@H](C)[C@H](NC(=O)[C@H](CCCNC(=N)N)NC(C)=O)C(=O)N[C@H](C(=O)N[C@@H](Cc1ccc(O)cc1)C(=O)N[C@@H](CC(=O)O)C(=O)N[C@@H](CCCNC(=N)N)C(=O)N[C@H]1CCCCNC(=O)CC[C@@H](C(=O)N[C@@H](CS)C(=O)N[C@@H](CCCNC(=N)N)C(N)=O)NC(=O)[C@H](CCSC)NC(=O)[C@H](CC(C)C)NC(=O)[C@H](Cc2ccccc2)NC1=O)[C@@H](C)CC", "note": "(Ac-RIIYDRKFLMECR-NH2; lactam 7-11)", "values": [
      {"measurement": "koff", "value": 0.0042, "unit": "s⁻¹"}
    ]}
  ]
}
